Measurements published in patent publication US8461124B2, “Five- and six-membered conformationally locked 2′,4′-carbocyclic ribo-thymidines for the treatment of infections and cancer” (priority 2007, dated 2013).

Assays:
complementary RNA = test: Thermal denaturation (UV melting) of AON duplexes with complementary RNA; type: binding; settings: for Tm/° C. with RNA: 1 μM of each strand, medium salt buffer pH 7.5, average of at least three runs; for ΔTm (Tm relative to RNA compliment): relative to native AON 1/RNA duplex
Procedure: All 17 modified AONs have been purified as a single component on PAGE (20% polyacrylamide with 7 Molar urea), extracted with 0.3 M NaOAc and desalted with C-18 reverse phase cartridge to give AONs in >99% purity and correct mass have been obtained by MALDI-TOF mass spectroscopy for each one them (Table 1). Determination of the Tm of the AON/RNA hybrids was carried out in the following buffer: 57 mM Tris-HCl (pH 7.5), 57 mM KCl, 1 mM MgCl2. Absorbance was monitored at 260 nm in the temperature range from 20° C. to 90° C. using UV spectrophotometer equipped with Peltier temperature programmer with the heating rate of 1° C. per minute. Prior to measurements, the samples (1 μM of AON and 1 μM RNA mixture) were pre-annealed by heating to 90° C. for 5 min followed by slow cooling to 4° C. and 30 min equilibration at this temperature and are average of at least three independent runs.

complementary DNA = test: Thermal denaturation (UV melting) of AON duplexes with complementary DNA; type: binding; settings: for Tm/° C. with DNA: 1 μM of each strand, medium salt buffer pH 7.5, average of at least three runs; for ΔTm* (Tm relative to DNA compliment): relative to native AON 1/DNA duplex
[1] = Stability of 5′-32P-labeled AONs in human blood serum (PAGE autoradiography); type: in vitro ADME
Procedure: FIG. 4. Autoradiograms of 20% denaturing PAGE showing degradation patterns of 5′-^32P-labeled AONs in human blood serum (Table 1 for all AON sequences). Inset A: AON 1 and LNA-modified AONs 2-5. Inset B: Carbocyclic-LNA-modified AONs 6-9. Inset C: Carbocyclic-ENA-modified AONs 10-13 and Inset D: aza-ENA-modified AONs 14-17. Time points are taken after 0, ½, 1 h, 2 h, 5 h, 7 h, 9 h, 12 h, for AONs 1-5 and 0 h, 6 h, 8 h, 12 h, 24 h, 36 h and 48 h of incubation for AONs 6-17 at 21° C. (see Experimental Section for details).
Modified sequences (Table 1), ^32P-labeled at 5′-ends, were digested in human blood serum at 21° C. as shown in the PAGE autoradiograms (Insets A, B, C and D in FIG. 4). In order to understand
AONs (6 μL) at 2 μM concentration (5′-end ^32P labeled with specific activity 80 000 cpm) were incubated in […] of human blood serum (male AB) at 21° C. (total reaction volume was 36 μL) and the experiments were repeated twice up to 48 h. Aliquots (3 μL) were taken at 0, 30 min, 1, 2, 5, 7, 8, 9, 12, 24, 36, 48 h and quenched with 7 μL of solution containing 8 M urea and 50 mM EDTA, resolved in 20% polyacrylamide denaturing (7 M urea) gel electrophoresis and visualized by autoradiography. […] Since no new prominent cleavage products were found toward the later time points, we considered those prominent stable initial fragments as 100% during the last time points (12-48 h).

E. coli RNase H1 = E. coli RNase H1 (Escherichia coli, UniProt P0A7Y4); settings: AON/RNA duplex
Chain of E. coli RNase H1 (P0A7Y4 whole entry): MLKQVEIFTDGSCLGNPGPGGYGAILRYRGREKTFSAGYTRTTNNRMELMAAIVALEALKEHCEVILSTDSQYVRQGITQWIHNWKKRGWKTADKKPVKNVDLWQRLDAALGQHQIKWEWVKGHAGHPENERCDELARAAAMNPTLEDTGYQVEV
Procedure: Autoradiograms of 20% denaturing PAGE, showing the cleavage kinetics of 5′-^32P-labeled target RNA by E. coli RNase H1 in the AONs 1-17 after 2, 5, 10, 15, 30 and 60 min of incubation. Conditions of cleavage reactions: RNA (0.8 μM) and AONs (4 μM) in buffer containing 20 nM Tris-HCL (pH 8.0), 20 mM KCL, 10 mM Mgcl2, and 0.1 mM DTT at 21° C.; 0.04 U of RNase H1. Inset A: LNA-T modified AONs 2-5 with native AON 1. Inset B: carbocyclic-LNA-T modified AONs 6-9. Inset C: carbocyclic-ENA-T modified AONs 10-13 with native AON 1. Inset D: aza-ENA-T modified AONs 14-17 with native AON 1. The graphs in Insets E, F, G, and H show the kinetics of RNase H1 mediated cleavage of the target RNA, the remaining fraction of target RNA is measured densitometrically and plotted as a function of time fitted to a single exponential decay function. Inset E: AON 1 with AONs 2-5. Inset F: for AON 1 with AONs 6-9. Inset G: AON 1 and AONs 10-13. Inset H: AON 1 and AONs 14-17.
The cleavage rates of RNase H digestion were determined by densitometric quantification of gels and subsequently by plotting the uncleaved RNA fraction as a function of time (Insets E-H in FIG. 6). The reaction rates were obtained by fitting the degradation curves to single-exponential decay functions.

3′-d(CTT(5-carbo)CTTTTTTACTTC)-5′ (antisense CTTCTTTTTTACTTC; carbocyclic-LNA-T at position 3 from 3'-end, chemistry not fully specified) [AON 6, carbocyclic-LNA-T modified AON, position 3 from 3′-end]
Tm/° C. with RNA (complementary RNA): 47.5 °C | ΔTm (Tm relative to RNA compliment) (complementary RNA): +3.5 °C | Tm/° C. with DNA (complementary DNA): 45 °C | ΔTm* (Tm relative to DNA compliment) (complementary DNA): 0.00 °C | time to give the n−1 fragment (hydrolysis of 3′-terminal nucleotide) ([1]; human blood serum, 21° C.): 2 h

3′-d(CTTCTTTTTTACTTC)-5′ (DNA, backbone not given here) [AON 1]
Tm/° C. with RNA (complementary RNA): 44 °C | Tm/° C. with DNA (complementary DNA): 45 °C | time to full degradation ([1]; human blood serum, 21° C.): ≤ 12 h | RNase H cleavage pattern of the RNA compliment (E. coli RNase H1): cleaved quite randomly with a slight preference after A-8 position

3′-d(CTTCTTTT(5-carbo)TTACTTC)-5′ (antisense CTTCTTTTTTACTTC; carbocyclic-LNA-T at position 8 from 3'-end, chemistry not fully specified) [AON 8, carbocyclic-LNA-T modified AON, position 8 from 3′-end]
Tm/° C. with RNA (complementary RNA): 48 °C | ΔTm (Tm relative to RNA compliment) (complementary RNA): +4 °C | Tm/° C. with DNA (complementary DNA): 44 °C | ΔTm* (Tm relative to DNA compliment) (complementary DNA): −1.00 °C

(1R,3R,4R,5R,7S)-7-(2-(Cyanoethoxy-(diisopropylamino)-phosphinoxy)-1-(4,4′-dimethoxytrityloxy methyl)-3-(thymin-1-yl)-2-oxa-bicyclo[2.2.1]heptane [Compound 14]
Tm/° C. with RNA (complementary RNA): 48 °C | ΔTm (Tm relative to RNA compliment) (complementary RNA): +4 °C | Tm/° C. with DNA (complementary DNA): 44.5 °C | ΔTm* (Tm relative to DNA compliment) (complementary DNA): −0.5 °C

3′-d(CTTCTT(5-carbo)TTTTACTTC)-5′ (antisense CTTCTTTTTTACTTC; carbocyclic-LNA-T at position 6 from 3'-end, chemistry not fully specified) [AON 7, carbocyclic-LNA-T modified AON, position 6 from 3′-end]
Tm/° C. with RNA (complementary RNA): 49 °C | ΔTm (Tm relative to RNA compliment) (complementary RNA): +5 °C | Tm/° C. with DNA (complementary DNA): 44 °C | ΔTm* (Tm relative to DNA compliment) (complementary DNA): −1.00 °C

3′-d(CTTCTTTT(LNA)TTACTTC)-5′ (antisense CTTCTTTTTTACTTC; LNA-T at position 8 from 3'-end, chemistry not fully specified) [AON 4, LNA-T modified AON, position 8 from 3′-end]
Tm/° C. with RNA (complementary RNA): 49 °C | ΔTm (Tm relative to RNA compliment) (complementary RNA): +5 °C | Tm/° C. with DNA (complementary DNA): 45.0 °C | ΔTm* (Tm relative to DNA compliment) (complementary DNA): 0.0 °C

3′-d(CTTCTTTTTT(6-carbo)ACTTC)-5′ [AON 13]
Tm/° C. with RNA (complementary RNA): 45.5 °C | ΔTm (Tm relative to RNA compliment) (complementary RNA): +1.5 °C | Tm/° C. with DNA (complementary DNA): 39.5 °C | ΔTm* (Tm relative to DNA compliment) (complementary DNA): −5.5 °C

3′-d(CTTCT T(LNA)TTTTACTTC)-5′ [AON 3]
Tm/° C. with RNA (complementary RNA): 49 °C | ΔTm (Tm relative to RNA compliment) (complementary RNA): +5 °C | Tm/° C. with DNA (complementary DNA): 46.5 °C | ΔTm* (Tm relative to DNA compliment) (complementary DNA): +1.5 °C

3′-d(CTTCTTTTTT(5-carbo)ACTTC)-5′ (antisense CTTCTTTTTTACTTC; carbocyclic-LNA-T at position 10 from 3'-end, chemistry not fully specified) [AON 9, carbocyclic-LNA-T modified AON, position 10 from 3′-end]
Tm/° C. with RNA (complementary RNA): 47.5 °C | ΔTm (Tm relative to RNA compliment) (complementary RNA): +3.5 °C | Tm/° C. with DNA (complementary DNA): 43.0 °C | ΔTm* (Tm relative to DNA compliment) (complementary DNA): −2.00 °C

3′-d(CTTCTTTTTT(LNA)ACTTC)-5′ (antisense CTTCTTTTTTACTTC; LNA-T at position 10 from 3'-end, chemistry not fully specified) [AON 5, LNA-T modified AON, position 10 from 3′-end]
Tm/° C. with RNA (complementary RNA): 49 °C | ΔTm (Tm relative to RNA compliment) (complementary RNA): +5 °C | Tm/° C. with DNA (complementary DNA): 46 °C | ΔTm* (Tm relative to DNA compliment) (complementary DNA): +1 °C

3′-d(CTTCTT(aza-ENA)TTTTACTTC)-5′ (antisense CTTCTTTTTTACTTC; aza-ENA-T at position 6 from 3'-end, chemistry not fully specified) [AON 15, aza-ENA-T modified AON, position 6 from 3′-end]
Tm/° C. with RNA (complementary RNA): 46.5 °C | ΔTm (Tm relative to RNA compliment) (complementary RNA): +2.5 °C | Tm/° C. with DNA (complementary DNA): 42.5 °C | ΔTm* (Tm relative to DNA compliment) (complementary DNA): −2.5 °C

3′-d(CTTCTTTT(aza-ENA)TTACTTC)-5′ (antisense CTTCTTTTTTACTTC; aza-ENA-T at position 8 from 3'-end, chemistry not fully specified) [AON 16, aza-ENA-T modified AON, position 8 from 3′-end]
Tm/° C. with RNA (complementary RNA): 47.5 °C | ΔTm (Tm relative to RNA compliment) (complementary RNA): +3.5 °C | Tm/° C. with DNA (complementary DNA): 42 °C | ΔTm* (Tm relative to DNA compliment) (complementary DNA): −3 °C

3′-d(CTT(aza-ENA)CTTTTTTACTTC)-5′ (antisense CTTCTTTTTTACTTC; aza-ENA-T at position 3 from 3'-end, chemistry not fully specified) [AON 14, aza-ENA-T modified AON, position 3 from 3′-end]
time to give the n−1 fragment (hydrolysis of 3′-terminal nucleotide) ([1]; human blood serum, 21° C.): ≤ 5 h | fraction of n−1 fragment ([1]; human blood serum, after 12 h): ca. 65% | fraction of n−2 fragment ([1]; human blood serum, after 12 h): ~35% | fraction of n−1 fragment ([1]; human blood serum, within 5 h): ca. 85% | fraction of n−2 fragment ([1]; human blood serum, within 5 h): ca. 15%

3′-d(CTTCTTTT(6-carbo)TTACTTC)-5′ [AON 12]
Tm/° C. with RNA (complementary RNA): 45.5 °C | ΔTm (Tm relative to RNA compliment) (complementary RNA): +1.5 °C | Tm/° C. with DNA (complementary DNA): 40.0 °C | ΔTm* (Tm relative to DNA compliment) (complementary DNA): −5.0 °C

3′-d(CTTCTTTTTT(aza-ENA)ACTTC)-5′ (antisense CTTCTTTTTTACTTC; aza-ENA-T at position 10 from 3'-end, chemistry not fully specified) [AON 17, aza-ENA-T modified AON, position 10 from 3′-end]
Tm/° C. with RNA (complementary RNA): 48 °C | ΔTm (Tm relative to RNA compliment) (complementary RNA): +4 °C | Tm/° C. with DNA (complementary DNA): 42 °C | ΔTm* (Tm relative to DNA compliment) (complementary DNA): −3 °C

3′-d(CTT(LNA)CTTTTTTACTTC)-5′ (antisense CTTCTTTTTTACTTC; LNA-T at position 3 from 3'-end, chemistry not fully specified) [AON 2, LNA-T modified AON, position 3 from 3′-end]
Tm/° C. with RNA (complementary RNA): 48 °C | ΔTm (Tm relative to RNA compliment) (complementary RNA): +4 °C | Tm/° C. with DNA (complementary DNA): 47 °C | ΔTm* (Tm relative to DNA compliment) (complementary DNA): +2 °C | serum stability compared with native AON 1 ([1]; human blood serum cleavage pattern): only slightly more stable than the native counterpart | time to full degradation ([1]; human blood serum, 21° C.): 9 h | time to give the n−1 fragment ([1]; human blood serum, 21° C.): 35 min | time to give the n−2 fragment as major product ([1]; human blood serum, 21° C.): 5 h

3′-d(CTTCTT(6-carbo)TTTTACTTC)-5′ [AON 11]
Tm/° C. with RNA (complementary RNA): 45.5 °C | ΔTm (Tm relative to RNA compliment) (complementary RNA): +1.5 °C | Tm/° C. with DNA (complementary DNA): 39.5 °C | ΔTm* (Tm relative to DNA compliment) (complementary DNA): −5.5 °C

3′-d(CTT(6-carbo)CTTTTTTACTTC)-5′ (antisense CTTCTTTTTTACTTC; carbocyclic-ENA-T at position 3 from 3'-end, chemistry not fully specified) [AON 10, carbocyclic-ENA-T modified AON, position 3 from 3′-end]
Tm/° C. with RNA (complementary RNA): 45.5 °C | ΔTm (Tm relative to RNA compliment) (complementary RNA): +1.5 °C | Tm/° C. with DNA (complementary DNA): 43.5 °C | ΔTm* (Tm relative to DNA compliment) (complementary DNA): −1.5 °C | time to give the n−1 fragment (hydrolysis of 3′-terminal nucleotide) ([1]; human blood serum, 21° C.): 2 h
